Source: patent US7888059B2, “Highly purified and stabilized Na,K-ATPase isoforms and methods of producing same” (Yeda Research and Development Co. Ltd., priority 2006, dated 2011)
Where two headings read alike, the source gives them in different places.

Experiments:
Format in all cases: biochemical
Na,K-ATPase = Na,K-ATPase activity and stability with different phosphatidyl serines (FIG. 7); conditions: for NKA activity: measured immediately after elution from the BD Talon beads
Protocol: (§1) Urea-treated membranes were homogenized with n-dodecyl-β-maltoside (DDM:protein, 2:1 w/w) (cat. No D310, Anatrace) in a medium containing NaCl, 250 mM; Tris.HCl, 20 mM pH 7.4; imidazole, 5 mM; PMSF, 0.5 mM; and glycerol, 10%. The protein concentration could be varied from 1-5 mg/ml and DDM adjusted accordingly from 2-10 mg/ml respectively. The unsolubilized material was removed by ultracentrifugation. Purification was done by metal-chelate chromatography using BD Talon, metal affinity resin (Co^2+-chelate). The DDM-solubilized membranes were incubated overnight at 4° C. with BD Talon beads, at a ratio of 100 μl beads per supernatant from 10 mg of membranes. EDTA was added at 50-250 μM at protein concentrations 1-5 mg/ml, respectively. The beads were washed twice for five minutes with vortexing with five volumes of a solution containing NaCl, 100 mM; Tris.HCl, 20 mM pH 7.4; C12E8, 0.1 mg/ml; DOPS or SOPS 0.05 mg/ml or other lipids and cholesterol at 0.01 mg/ml, as indicated; glycerol, 10%, and imidazole, 10 mM. Protein was eluted by mixing the beads for 40 minutes at 0° C. with one volume of a solution containing imidazole, 150 mM; NaCl, 100 mM; Tris.HCl, 20 mM pH 7.4, C12E8, 0.1 mg/ml; DOPS, or SOPS 0.05 mg/ml or other lipids and cholesterol as indicated; glycerol, 10%. The eluted protein was stored at 0° C. […] Protein concentration was determined by comparative gel densitometry with pig kidney Na^+,K^+-ATPase or by Lowry assay.
(§2) Na^+,K^+-ATPase assays were done as described in (Cohen et al., 2005, J Biol Chem, 280, 16610-16618; Strugatsky et al., 2003, J Biol Chem, 278, 46064-46073). 0.1-0.2 μg of purified protein was incubated at 37° C. for 2-10 min in 0.1 ml of Na,K-ATPase reaction medium containing 130 mM NaCl; 20 mM KCl; 3 mM MgCl2; 25 mM Histidine pH 7.4. The reaction was started by addition of 2 mM ATP [^32P-ATP].
The experiment in FIG. 7 compared the stability with different chain lengths and saturation of the side chains.

human α1β1 [1] = molecular target: T1, human α1β1 (Homo sapiens, UniProt P05023); assay: Initial Na,K-ATPase activity of human α1β1 prepared with phospholipid with or without cholesterol; conditions: human α1β1, initial activity following elution from the beads, 37° C.
T1 construct: The coding regions were excised with XbaI and subcloned; made in house; host or cells: Pichia pastoris SMD1165
Protocol: as §1, with “mM.” for “mM. Protein was eluted by mixing the beads for 40 minutes at 0° C. with one volume of a solution containing imidazole, 150 mM; NaCl, 100 mM; Tris.HCl, 20 mM pH 7.4, C12E8, 0.1 mg/ml; DOPS, or SOPS 0.05 mg/ml or other lipids and cholesterol as indicated; glycerol, 10%. The eluted protein was stored at 0° C.”, “assay. […]” for “assay.”

porcine α1β1 = molecular target: T2, porcine α1β1 (Sus scrofa, UniProt P05024); assay: Na,K-ATPase activity of porcine α1β1 with different phospholipids (FIG. 6A); conditions: porcine α1β1, FIG. 6A
T2 construct: made in house; host or cells: Pichia pastoris SMD1165
Protocol: as §1, §2
Both DOPS and DOPI are acid phospholipids, while DOPC and DOPE have no net charge.

human α1β1 [2] = molecular target: T1, human α1β1; assay: Stabilization of human α1β1 Na,K-ATPase activity over time (lipids, sterols, FXYD1); conditions: for stabilizing effect of sterol on Na,K-ATPase activity: human α1β1 prepared with DOPS or DOPC, FIGS. 9A-B
Protocol: as §1, §2
(§3) Aliquots of the preparations were incubated either at 37° C. or 45° C., respectively, for the indicated times, and then returned to 0° C., prior to measurement of Na,K-ATPase activity.

human α1β1 [3] = assay: as above
Protocol: as §1, §2, §3

human α2β1 [4] = molecular target: T3, human α2β1 (Homo sapiens, UniProt P50993); assay: Stabilization of human α2β1 Na,K-ATPase activity over time (lipids, sterols, FXYD1); conditions: for stabilizing effect of sterol on α2β1 complex: 0° C., together with DOPS
T3 construct: The coding regions were excised with XbaI and subcloned; made in house; host or cells: Pichia pastoris SMD1165 (clone "b", induced at 20° C.)
Protocol: as §1, §2, §3

human α1β1 [5] = molecular target: T1, human α1β1; assay: biochemical
Protocol: as §2
(§4) The inhibitor was added directly to the reaction medium at 37° C. immediately prior to addition of ATP, which starts the reaction.

human α2β1 [6] = molecular target: T3, human α2β1; assay: biochemical
Protocol: as §2, §4

CCCCCCCCCCCCCC(=O)OC[C@H](COP(=O)(O)OC[C@H](N)C(=O)O)OC(=O)CCCCCCCCCCCCC [DMPS, 1,2-Dimyristoyl-sn-Glycero-3-[Phospho-L-Serine]]
NKA activity (Na,K-ATPase): 11.48 µmol/min/mg

CCCCCCCC/C=C\CCCCCCCC(=O)OC[C@H](COP(=O)([O-])OCC[N+](C)(C)C)OC(=O)CCCCCCC/C=C\CCCCCCCC [DOPC, 1,2-Dioleoyl-sn-Glycero-3-Phosphocholine]
Na, K-ATPase activity (human α1β1 [1]): 14.28 µmol/min/mg | maintenance of Na,K-ATPase activity with phospholipid (porcine α1β1): somewhat lower initial Na,K-ATPase activity at 37 °C than for DOPS

CCCCCCCC/C=C\CCCCCCCC(=O)OC[C@H](COP(=O)(O)OCCN)OC(=O)CCCCCCC/C=C\CCCCCCCC [DOPE, 1,2-Dioleoyl-sn-Glycero-3-Phosphoethanolamine]
maintenance of Na,K-ATPase activity with phospholipid (porcine α1β1): DOPS>DOPI>>DOPE

CCCCCCCC/C=C\CCCCCCCC(=O)OC[C@H](COP(=O)(O)OC1C(O)C(O)C(O)[C@@H](O)C1O)OC(=O)CCCCCCC/C=C\CCCCCCCC (some centres unmarked) [DOPI, 1,2-Dioleoyl-sn-Glycero-3-Phosphoinositol]
maintenance of Na,K-ATPase activity with phospholipid (porcine α1β1): DOPS>DOPI>>DOPE

CCCCCCCC/C=C\CCCCCCCC(=O)OC[C@H](COP(=O)(O)OC[C@H](N)C(=O)O)OC(=O)CCCCCCC/C=C\CCCCCCCC [DOPS, 1,2-Dioleoyl-sn-Glycero-3-[Phospho-L-Serine]]
NKA activity (Na,K-ATPase): 11.42 µmol/min/mg | Na, K-ATPase activity (human α1β1 [1]): 11.64 µmol/min/mg | maintenance of Na,K-ATPase activity with phospholipid (porcine α1β1): DOPS>DOPI>>DOPE | half-time for loss of activity (human α1β1 [2]; 37° C., human α1β1 prepared with DOPS, without PLM): about 70 minutes | remaining activity, of initial activity (human α1β1 [2]; after 120 minutes at 37° C., human α1β1 prepared with DOPS, without PLM): approximately 20%

CCCCCCCCCCCCCCCC(=O)OC[C@H](COP(=O)(O)OC[C@H](N)C(=O)O)OC(=O)CCCCCCCCCCCCCCC [DPPS, 1,2-Dipalmitoyl-sn-Glycero-3-[Phospho-L-Serine]]
NKA activity (Na,K-ATPase): 6.46 µmol/min/mg

CCCCCCCCCCCCCCCCCC(=O)OC[C@H](COP(=O)(O)OC[C@H](N)C(=O)O)OC(=O)CCCCCCCCCCCCCCCCC [DSPS, 1,2-Distearoyl-sn-Glycero-3-[Phospho-L-Serine]]
NKA activity (Na,K-ATPase): 4.72 µmol/min/mg

CCCCCCCC/C=C\CCCCCCCC(=O)O[C@H](COC(=O)CCCCCCCCCCCCCCC)COP(=O)(O)OC[C@H](N)C(=O)O [POPS, 1-Palmitoyl-2-Oleoyl-sn-Glycero-3-[Phospho-L-Serine]]
NKA activity (Na,K-ATPase): 12.58 µmol/min/mg

CCCCCCCC/C=C\CCCCCCCC(=O)O[C@H](COC(=O)CCCCCCCCCCCCCCCCC)COP(=O)(O)OC[C@H](N)C(=O)O [SOPS, I-Stearoyl-2-Oleoyl-sn-Glycero-3-[Phospho-L-Serine]]
stability of Na,K-ATPase activity over time (Na,K-ATPase; 0° C., FIG. 7): declined even more slowly than with the standard DOPS | NKA activity (Na,K-ATPase): 11.92 µmol/min/mg | stabilizing effect of phosphatidyl serine on α1β1 (human α1β1 [3]; 37° C. and 0° C., FIGS. 8A-B (porcine and human α1β1)): significantly more stabilizing than DOPS

CC(C)CCC[C@@H](C)[C@H]1CC[C@H]2[C@@H]3CC=C4C[C@@H](O)CC[C@]4(C)[C@H]3CC[C@]12C [cholesterol]
stabilizing effect of sterol on α2β1 complex (human α2β1 [4]): greatly stabilized | stabilizing effect of sterol on Na,K-ATPase activity (human α1β1 [2]; 37° C.): greatly stabilizes

C[C@H]1O[C@@H](O[C@H]2[C@@H](O)C[C@H](O[C@H]3[C@@H](O)C[C@H](O[C@H]4CC[C@@]5(C)[C@H](CC[C@@H]6[C@@H]5C[C@@H](O)[C@]5(C)[C@@H](C7=CC(=O)OC7)CC[C@]65O)C4)O[C@@H]3C)O[C@@H]2C)C[C@H](O)[C@@H]1O [digoxin]
offset (activity not inhibited), α1β1 (human α1β1 [5]): no significant offset | offset (activity not inhibited), α2β1 (human α2β1 [6]): 0.058±0.016

CC(C)[C@@H](C)/C=C/[C@@H](C)[C@H]1CC[C@H]2C3=CC=C4C[C@@H](O)CC[C@]4(C)[C@H]3CC[C@]12C [ergosterol]
stabilizing effect of sterol on α2β1 complex (human α2β1 [4]): much less effective than cholesterol | stabilizing effect of sterol on Na,K-ATPase activity (human α1β1 [2]; 37° C.): only a minor stabilizing effect

CO[C@H]1[C@H](O)[C@H](O[C@H]2CC[C@@]3(C)[C@H](CC[C@@H]4[C@@H]3CC[C@]3(C)[C@@H](C5=CC(=O)OC5)CC[C@]43O)C2)O[C@@H](C)[C@@H]1O [neriifolin]
offset, α1 (human α1β1 [5]; 37° C., FIG. 18B): 0 | IC50 (human α1β1 [5]; K0.5 for inhibition, α1, 37° C., FIG. 18B, reaction time not stated): 50 ± 7 nM | α1/α2 preference (human α1β1 [5]; conditions of the Na,K-ATPase reaction at 37° C.): no significant α1/α2 preference | offset, α2 (human α2β1 [6]; 37° C., FIG. 18B): 0.12 | IC50 (human α2β1 [6]; K0.5 for inhibition, α2, 37° C., FIG. 18B, reaction time not stated): 29 ± 4.1 nM

C[C@@H]1O[C@@H](O[C@H]2C[C@@H](O)[C@]3(CO)[C@H]4[C@H](O)C[C@]5(C)[C@@H](C6=CC(=O)OC6)CC[C@]5(O)[C@@H]4CC[C@]3(O)C2)[C@H](O)[C@H](O)[C@H]1O [ouabain]
extent of inhibition of α1β1 (human α1β1 [5]; 37° C., reaction 10 minutes): fully inhibited | offset (activity not inhibited), α2β1 (human α2β1 [6]; 37° C., 60 minutes): 0.056±0.017 | offset (activity not inhibited), α2β1 (human α2β1 [6]; 37° C., reaction 10 minutes): 0.069±0.01

PLM: human FXYD1, subsidiary subunit of Na,K-ATPase, Genbank Accession No. H23593
stability of Na,K-ATPase activity (human α2β1 [4]; 37° C., α2β1 prepared with SOPS/cholesterol with PLM): essentially stable for 60 minutes at 37 °C | stability of Na,K-ATPase activity (human α1β1 [3]; 37° C., human α1β1, PLM with DOPS preparation, SOPS/cholesterol without PLM): essentially no loss of activity up to 120 minutes
